The target of experiment [1] is T1, Cytosolic phospholipase A2 (Homo sapiens) (UniProt P47712).
T1 sequence (whole entry): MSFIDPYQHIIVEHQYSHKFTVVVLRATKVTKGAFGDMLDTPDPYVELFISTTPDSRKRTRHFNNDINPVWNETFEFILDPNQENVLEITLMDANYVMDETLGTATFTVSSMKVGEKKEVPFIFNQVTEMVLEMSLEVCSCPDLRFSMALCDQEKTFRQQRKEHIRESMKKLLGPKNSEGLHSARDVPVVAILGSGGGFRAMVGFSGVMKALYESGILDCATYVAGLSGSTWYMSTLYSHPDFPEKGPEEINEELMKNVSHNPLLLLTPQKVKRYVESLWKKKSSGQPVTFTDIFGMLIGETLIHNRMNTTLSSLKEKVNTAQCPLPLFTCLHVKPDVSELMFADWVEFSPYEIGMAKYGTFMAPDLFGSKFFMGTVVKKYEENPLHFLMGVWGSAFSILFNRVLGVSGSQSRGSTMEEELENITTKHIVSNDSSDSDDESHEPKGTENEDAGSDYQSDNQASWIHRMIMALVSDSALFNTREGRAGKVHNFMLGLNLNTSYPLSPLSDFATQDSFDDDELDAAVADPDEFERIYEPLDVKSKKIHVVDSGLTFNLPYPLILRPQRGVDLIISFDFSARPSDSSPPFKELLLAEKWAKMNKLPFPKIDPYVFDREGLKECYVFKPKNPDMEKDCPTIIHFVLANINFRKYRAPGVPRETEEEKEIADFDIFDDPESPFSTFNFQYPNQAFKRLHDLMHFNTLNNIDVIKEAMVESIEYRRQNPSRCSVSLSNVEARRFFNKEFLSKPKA
Briefly: Inhibitory activity against human Group IVA Phospholipase A2 (GIVA PLA2).

The target of experiment [2] is T1, Cytosolic phospholipase A2 (Homo sapiens). Kind of experiment: Inhibitory activity against human Group IVA Phospholipase A2 (GIVA PLA2); Inactive.
For experiment [3] the target is unchanged. Kind of experiment: Inhibitory activity against human Group IVA Phospholipase A2 (GIVA PLA2), at 0.02 mole fraction.

The source made the active and inactive calls. The rule behind the calls is not given here.

Usually inhibition stands for how much of the control response was suppressed.

`CCCCCCCCCCC(=O)C(=O)N[C@@H](CCCC)CCC(=O)O`: the XI50 in experiment [1] came to 0.009. As for `CCCCCCCCCCC(=O)C(=O)N[C@H](CCCC)CCC(=O)O`, the XI50 in experiment [1] was 0.068. With `CCCCCCCC/C=C\CCCCCCCCNC(=O)C(=O)CCCCCCCCCCCCCC`, the IA result in experiment [2] is “inactive”. Turning to `CCCCCCCCCCCCCCC(=O)C(=O)NCCCC(=O)O`, in experiment [1], the XI50 was 0.017. In experiment [3], `CCCCCCCCCCCCCCC(=O)C(=O)NCCCCCC` returned an inhibition of 22%.

Regarding `CCCCCCC(=O)C(=O)NCCCC(=O)O`, in experiment [2], the IA result was “inactive”.

As for `CCCCCCCC/C=C\CCCCCCCCNC(=O)C(=O)CCCCCC`, the IA result in experiment [2] is “inactive”. Same read-out and setting: then `CCCCCCCCCCCCCC(=O)C(N)=O`, with “inactive”.

The values above are taken from ChEMBL document CHEMBL1135491, “Novel 2-oxoamide inhibitors of human group IVA phospholipase A(2)” (J Med Chem, 2002).
